In the NIST ThermoML archive (doi:10.1016/j.jct.2009.10.002):
Numbers after ± are expanded uncertainties.

Key:
[1] = 298.15 K; 101.33 kPa; Liquid; Vibrating tube method
[2] = mn = molality of the nth substance listed, in mol/kg; settings: 298.15 K, 101 kPa, Liquid, Vibrating tube method

CCCCCCCCO [octan-1-ol]
Settings	mass density [kg/m3]
[1]	822.11 ± 0.24

CC(=O)Nc1ccc(O)cc1 [N-acetyl-p-aminophenol] + CCCCCCCCO
[2]
Settings	mass density [kg/m3]
m1 = 0.006684	822.49 ± 0.31
m1 = 0.009351	822.61 ± 0.31
m1 = 0.01261	822.76 ± 0.31
m1 = 0.0141	822.83 ± 0.31
m1 = 0.01601	822.91 ± 0.31
m1 = 0.01873	823.05 ± 0.31
m1 = 0.02173	823.19 ± 0.31
m1 = 0.02486	823.33 ± 0.31
m1 = 0.03075	823.59 ± 0.31
m1 = 0.03578	823.8 ± 0.31
m1 = 0.04077	824.01 ± 0.31
m1 = 0.04581	824.23 ± 0.31
m1 = 0.05103	824.46 ± 0.31
m1 = 0.05889	824.81 ± 0.31
m1 = 0.06631	825.1 ± 0.31
m1 = 0.07665	825.5 ± 0.31
m1 = 0.08633	825.93 ± 0.31
m1 = 0.1379	828.16 ± 0.32

Oc1ccccc1 [phenol] + CCCCCCCCO
[2]
Settings	mass density [kg/m3]
m1 = 0.01293	822.32 ± 0.31
m1 = 0.0235	822.59 ± 0.31
m1 = 0.03299	822.87 ± 0.31
m1 = 0.04712	823.32 ± 0.31
m1 = 0.06563	823.78 ± 0.31
m1 = 0.1179	825.01 ± 0.32
m1 = 0.2355	827.82 ± 0.34
m1 = 0.2692	828.62 ± 0.34
m1 = 0.3564	831.14 ± 0.35
m1 = 0.4787	834.18 ± 0.37

O=C(O)c1ccccc1 [benzoic acid] + CCCCCCCCO
[2]
Settings	mass density [kg/m3]
m1 = 0.002452	822.18 ± 0.31
m1 = 0.005198	822.27 ± 0.31
m1 = 0.01254	822.53 ± 0.31
m1 = 0.01324	822.55 ± 0.31
m1 = 0.03589	823.34 ± 0.31
m1 = 0.06692	824.43 ± 0.3
m1 = 0.198	828.84 ± 0.3
m1 = 0.3209	832.91 ± 0.29
m1 = 0.4227	836.12 ± 0.29
m1 = 0.5096	838.89 ± 0.29

CC(=O)Nc1ccccc1C(=O)O [2-acetamidobenzoic acid] + CCCCCCCCO
[2]
Settings	mass density [kg/m3]
m1 = 0.004871	822.31 ± 0.31
m1 = 0.008993	822.47 ± 0.31
m1 = 0.01189	822.58 ± 0.31
m1 = 0.01818	822.82 ± 0.31
m1 = 0.02358	823.02 ± 0.31
m1 = 0.03392	823.42 ± 0.31
m1 = 0.05837	824.35 ± 0.31
m1 = 0.0873	825.4 ± 0.31
m1 = 0.1273	826.83 ± 0.31
m1 = 0.1682	828.43 ± 0.31

NC(=O)c1ccc(O)cc1 [4-hydroxybenzamide] + CCCCCCCCO
[2]
Settings	mass density [kg/m3]
m1 = 0.002127	822.18 ± 0.31
m1 = 0.005332	822.31 ± 0.32
m1 = 0.005725	822.34 ± 0.32
m1 = 0.007571	822.43 ± 0.31
m1 = 0.01115	822.59 ± 0.31
m1 = 0.01722	822.85 ± 0.31
m1 = 0.02131	822.99 ± 0.31
m1 = 0.02267	823.06 ± 0.31
m1 = 0.02734	823.25 ± 0.31
m1 = 0.02874	823.32 ± 0.31
m1 = 0.038	823.71 ± 0.31
m1 = 0.05733	824.52 ± 0.31
m1 = 0.0819	825.53 ± 0.31
m1 = 0.09825	826.23 ± 0.31
m1 = 0.1209	827.18 ± 0.31
m1 = 0.1408	828.01 ± 0.31
m1 = 0.1856	829.93 ± 0.32

CC(=O)Nc1ccccc1O [N-(2-hydroxyphenyl)ethanamide] + CCCCCCCCO
[2]
Settings	mass density [kg/m3]
m1 = 0.001728	822.19 ± 0.31
m1 = 0.002758	822.23 ± 0.31
m1 = 0.003165	822.24 ± 0.31
m1 = 0.003211	822.24 ± 0.31
m1 = 0.004195	822.28 ± 0.31
m1 = 0.005164	822.31 ± 0.31
m1 = 0.006563	822.36 ± 0.31
m1 = 0.01154	822.56 ± 0.31
m1 = 0.0164	822.75 ± 0.31
m1 = 0.01909	822.86 ± 0.31
m1 = 0.02399	823.06 ± 0.31
m1 = 0.03356	823.46 ± 0.31

CC(=O)Nc1cccc(O)c1 [3-acetamidophenol] + CCCCCCCCO
[2]
Settings	mass density [kg/m3]
m1 = 0.002796	822.21 ± 0.31
m1 = 0.006909	822.37 ± 0.31
m1 = 0.008394	822.43 ± 0.31
m1 = 0.01356	822.62 ± 0.31
m1 = 0.02056	822.89 ± 0.31
m1 = 0.04126	823.67 ± 0.31
m1 = 0.08892	825.48 ± 0.32
m1 = 0.1451	827.61 ± 0.32
m1 = 0.1875	829.24 ± 0.33
m1 = 0.2708	832.45 ± 0.34

NC(=O)c1ccccc1O [2-hydroxybenzamide] + CCCCCCCCO
[2]
Settings	mass density [kg/m3]
m1 = 0.002458	822.19 ± 0.31
m1 = 0.003905	822.23 ± 0.31
m1 = 0.0061	822.31 ± 0.31
m1 = 0.007816	822.37 ± 0.31
m1 = 0.01182	822.51 ± 0.31
m1 = 0.02311	822.87 ± 0.31
m1 = 0.03084	823.13 ± 0.31
m1 = 0.03859	823.39 ± 0.31
m1 = 0.05387	823.86 ± 0.31
m1 = 0.08947	825.16 ± 0.31

NC(=O)c1cccc(O)c1 [3-hydroxy-benzamide] + CCCCCCCCO
[2]
Settings	mass density [kg/m3]
m1 = 0.001492	822.16 ± 0.31
m1 = 0.002531	822.2 ± 0.31
m1 = 0.003737	822.25 ± 0.31
m1 = 0.006435	822.38 ± 0.31
m1 = 0.007522	822.43 ± 0.31
m1 = 0.01163	822.62 ± 0.31
m1 = 0.02156	823.03 ± 0.31
m1 = 0.03239	823.51 ± 0.31
m1 = 0.04091	823.88 ± 0.31
m1 = 0.05285	824.43 ± 0.31
m1 = 0.07208	825.26 ± 0.31
m1 = 0.08749	825.95 ± 0.31

CC(=O)Nc1ccc(C(=O)O)cc1 [4-acetamidobenzoic acid] + CCCCCCCCO
[2]
Settings	mass density [kg/m3]
m1 = 0.000708	822.14 ± 0.35
m1 = 0.00077	822.15 ± 0.32
m1 = 0.000914	822.16 ± 0.31
m1 = 0.001192	822.17 ± 0.31
m1 = 0.001367	822.18 ± 0.31
m1 = 0.002266	822.23 ± 0.31
m1 = 0.002865	822.26 ± 0.31
m1 = 0.002919	822.26 ± 0.31
m1 = 0.003657	822.3 ± 0.31
m1 = 0.005744	822.42 ± 0.31
m1 = 0.01212	822.76 ± 0.31
m1 = 0.01816	823.12 ± 0.31
m1 = 0.02407	823.47 ± 0.31
m1 = 0.0284	823.73 ± 0.31
m1 = 0.03621	824.17 ± 0.31

CC(=O)Nc1ccccc1 [N-phenylethanamide] + CCCCCCCCO
[2]
Settings	mass density [kg/m3]
m1 = 0.002139	822.18 ± 0.31
m1 = 0.00565	822.29 ± 0.31
m1 = 0.01113	822.46 ± 0.31
m1 = 0.01413	822.55 ± 0.31
m1 = 0.02434	822.84 ± 0.31
m1 = 0.02629	822.9 ± 0.3
m1 = 0.05259	823.67 ± 0.31
m1 = 0.08132	824.49 ± 0.31
m1 = 0.1056	825.18 ± 0.31
m1 = 0.1482	826.35 ± 0.31
m1 = 0.1847	827.37 ± 0.31
m1 = 0.2858	830.1 ± 0.3
m1 = 0.3663	832.25 ± 0.32

CC(=O)Nc1cccc(C(=O)O)c1 [3-(acetylamino)benzoic acid] + CCCCCCCCO
[2]
Settings	mass density [kg/m3]
m1 = 0.000244	822.13 ± 0.31
m1 = 0.000488	822.14 ± 0.31
m1 = 0.000973	822.17 ± 0.31
m1 = 0.001081	822.17 ± 0.31
m1 = 0.001283	822.18 ± 0.31
m1 = 0.001361	822.19 ± 0.31
m1 = 0.001375	822.19 ± 0.31
m1 = 0.001452	822.19 ± 0.31
m1 = 0.001582	822.2 ± 0.32
m1 = 0.002358	822.23 ± 0.31
m1 = 0.003857	822.28 ± 0.31
m1 = 0.006025	822.36 ± 0.31
m1 = 0.007586	822.43 ± 0.31
m1 = 0.009397	822.51 ± 0.31
m1 = 0.0109	822.57 ± 0.31
m1 = 0.01161	822.6 ± 0.31
m1 = 0.01355	822.68 ± 0.31
m1 = 0.01453	822.72 ± 0.31

NC(=O)c1ccccc1 [benzamide] + CCCCCCCCO
[2]
Settings	mass density [kg/m3]
m1 = 0.004751	822.25 ± 0.31
m1 = 0.009145	822.4 ± 0.31
m1 = 0.01194	822.49 ± 0.31
m1 = 0.01802	822.68 ± 0.31
m1 = 0.02473	822.9 ± 0.31
m1 = 0.03952	823.38 ± 0.31
m1 = 0.07569	824.52 ± 0.31
m1 = 0.108	825.55 ± 0.31
m1 = 0.1331	826.37 ± 0.31
m1 = 0.179	827.87 ± 0.31

CCOc1ccc(NC(C)=O)cc1 [N-(4-ethoxyphenyl)ethanamide] + CCCCCCCCO
[2]
Settings	mass density [kg/m3]
m1 = 0.00971	822.4 ± 0.3
m1 = 0.01263	822.48 ± 0.31
m1 = 0.01969	822.67 ± 0.31
m1 = 0.0229	822.75 ± 0.31
m1 = 0.02432	822.79 ± 0.31
m1 = 0.02706	822.86 ± 0.31
m1 = 0.03645	823.12 ± 0.31
m1 = 0.04962	823.48 ± 0.31
m1 = 0.06288	823.85 ± 0.31
m1 = 0.08214	824.37 ± 0.31
m1 = 0.105	824.98 ± 0.31
m1 = 0.1351	825.83 ± 0.31
m1 = 0.1591	826.63 ± 0.32
